The record followed here is patent publication US9409864B2, “Sulfonamide TRPA1 receptor antagonists” (ARIO PHARMA LIMITED, priority 2013, dated 2016).

In experiment [1] the target is T1, native human TRPA1 receptors (Homo sapiens, UniProt O75762).
T1 construct: stably expressing native human TRPA1 receptors were used; endogenous in cells; host or cells: A549 human lung adenocarcinoma epithelial cell line
Description: PF-4840154 (1 μM)-induced Ca2+ fluorescence measurements in A549 cell line. Format: cell-based. The note with it: for inhibition at 10 µM: 10 μM compound against 1 μM PF-4840154, A549 cells; for IC50: against PF-4840154 (1 μM)-evoked [Ca2+]i mobilization, A549 cells. A digest of the protocol:
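A549 cells stably expressing native human TRPA1, Fluo-4 AM loaded; fluorescence Ca2+ read in HBSS with probenecid and Brilliant Black at 36.5 °C. Compounds tested alone for agonism and against 1 μM PF-4840154 for inhibition at initial 10 μM; IC50 from full concentration-response curves for selected compounds.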

Experiment [2] concerns PF-4840154-induced mechanical hyperalgesia in rats. The experiment can be described thus: Agonist (PF-4840154)-induced mechanical hyperalgesia in rats. Format: in vivo. The note with it: Rattus norvegicus, 30 μmol/kg oral, PF-4840154 0.05 nmol/50 μl/paw intraplantar. From the text:
Agonist (PF-4840154)-Induced Mechanical Hyperalgesia in Rats
The method is used to investigate the anti-hyperalgesic effects of the compounds listed in the present invention following agonist (PF-4840154)-induced hyperalgesic responses. The activity is indicative of TRPA1 receptor occupancy following oral dosing. Specifically, male SD rats (Charles River, Italy) weighing 70-100 g. were used. The anti-hyperalgesic effects were investigated using the electronic dynamometer test. PF-4840154 (Sigma, USA) was used to induce mechanical hyperalgesia. Local, intraplantar injection of PF-4840154 at 0.05 nmol/50 μl/paw caused the reduction of the hind paw withdrawal response induced by mechanical stimuli. Mechanical stimulation was induced in basal condition and 30, 60, 120, 180 and 240 minutes after the oral administration of the antagonists dissolved in 2.5% DMSO and 30% Solutol. Compounds were orally administered (30 μmol/kg/10 ml) to rats 1 hour before the injection of PF-4840154 into the plantar surface of a rat's hind using a micro syringe.

The subject of experiment [3] is oxaliplatin-induced mechanical hyperalgesia in rats. The experiment can be described thus: Oxaliplatin-induced mechanical hyperalgesia in rats. Format: in vivo. To be noted: Rattus norvegicus, 168 h, 30 μmol/kg oral, 7 days post i.v. oxaliplatin 2.5 mg/kg. On the procedure: Oxaliplatin-Induced Mechanical Hyperalgesia in Rats
The method described by Nassini et al. (Pain, 2011, 152(7), 1621-31) was used with minor modifications. Restrained rats were treated with a single intravenous bolus injection of oxaliplatin (2.5 mg/kg) dissolved in normal saline. This approach was sufficient to elicit reproducible allodynic behaviour evident 3 days post injection and during the day thereafter. For convenience all acute experiments were conducted 7 days post injection when compounds were orally administered at 30 μmol/kg.

The target of experiment [4] is T2, TRPA1 (cultured rat dorsal root ganglia neurons) (Rattus norvegicus, UniProt Q6RI86).
T2 construct: calcium assay data obtained in primary culture of rat dorsal ganglia neurons; from tissue; host or cells: primary culture of dorsal root ganglia neurons from male SD rats
T2 sequence (Q6RI86 whole entry): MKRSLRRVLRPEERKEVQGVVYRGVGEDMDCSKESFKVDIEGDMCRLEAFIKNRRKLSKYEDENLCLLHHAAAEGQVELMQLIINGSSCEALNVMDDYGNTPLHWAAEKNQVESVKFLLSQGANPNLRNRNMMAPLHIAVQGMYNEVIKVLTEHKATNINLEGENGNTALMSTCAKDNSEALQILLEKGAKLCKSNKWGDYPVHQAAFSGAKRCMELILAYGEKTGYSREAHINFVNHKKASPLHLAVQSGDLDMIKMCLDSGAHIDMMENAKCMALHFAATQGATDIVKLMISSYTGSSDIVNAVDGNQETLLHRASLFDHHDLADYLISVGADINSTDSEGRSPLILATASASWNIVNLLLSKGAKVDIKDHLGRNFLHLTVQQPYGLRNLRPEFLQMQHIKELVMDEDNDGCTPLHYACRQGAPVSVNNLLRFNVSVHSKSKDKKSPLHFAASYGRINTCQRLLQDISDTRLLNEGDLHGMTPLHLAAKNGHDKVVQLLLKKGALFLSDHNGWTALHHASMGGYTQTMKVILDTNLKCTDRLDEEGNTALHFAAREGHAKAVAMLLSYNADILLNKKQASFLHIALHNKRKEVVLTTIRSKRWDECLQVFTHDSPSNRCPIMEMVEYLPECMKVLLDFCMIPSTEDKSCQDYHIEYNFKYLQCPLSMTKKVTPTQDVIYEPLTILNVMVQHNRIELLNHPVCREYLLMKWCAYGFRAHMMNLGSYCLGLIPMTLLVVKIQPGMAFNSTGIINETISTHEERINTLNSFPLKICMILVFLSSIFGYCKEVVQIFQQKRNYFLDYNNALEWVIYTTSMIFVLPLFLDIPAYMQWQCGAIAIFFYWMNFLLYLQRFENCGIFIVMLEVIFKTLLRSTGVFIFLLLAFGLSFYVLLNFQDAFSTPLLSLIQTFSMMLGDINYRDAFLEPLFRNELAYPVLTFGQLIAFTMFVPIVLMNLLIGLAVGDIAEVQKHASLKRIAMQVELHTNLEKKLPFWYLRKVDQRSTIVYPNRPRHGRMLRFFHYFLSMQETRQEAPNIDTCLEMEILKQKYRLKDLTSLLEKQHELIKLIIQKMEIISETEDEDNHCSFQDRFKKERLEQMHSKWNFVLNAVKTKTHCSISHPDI
The experiment can be described thus: PF-4840154 (10 μM)-induced Ca2+ fluorescence measurements in cultured rat dorsal root ganglia neurons. Format: cell-based. To be noted: against 10 μM PF-4840154-induced [Ca2+]i mobilization, primary culture of rat dorsal ganglia neurons. On the procedure: PF-4840154 (10 μM)-Induced Ca^2+ Fluorescence Measurements in Cultured Rat Dorsal Root Ganglia Neurons
Male SD rats (˜50 g, Charles River, Italy) were terminally anaesthetized and decapitated. Dorsal root ganglia were removed and placed in cold Hank's balanced salt solution (HBSS) before being transferred to collagenase (2 mg/ml) and trypsin (1 mg/ml) for 35 min at 37° C. The ganglia, placed in cold DMEM supplemented with 10% fetal bovine serum, 10% horse serum, 2 mM L-glutamine, 100 U/ml penicillin and 100 μg/ml streptomycin, were dissociated in single cells by several passages through a series of syringe needles (23G down to 25G). The medium and the ganglia were filtered to remove debris, topped up with 4 ml of DMEM medium and centrifuged (1100 rpm for 6 min). The final cell pellet was re-suspended in DMEM medium [supplemented with 100 ng/ml mouse Nerve Growth Factor (mouse-NGF-7S) and cytosine-β-D-arabinofuranoside free base (ARA-C) 2.5 μM]. The cells were plated on poly-L-lysine (8.3 μM)- and laminin (5 μM)-coated 25 mm glass cover slips and kept for 2 days at 37° C. in a humidified incubator gassed with 5% CO2 and air, then treated with Fura-2-AM-ester (5 μM) in a Ca^2+ buffer solution having the following composition (mM): CaCl2 1.4, KCl 5.4, MgSO4 0.4, NaCl 135, D-glucose 5, HEPES 10 with BSA (0.1%), at pH 7.4, for 40 min at 37° C. The cells were then washed twice with the Ca^2+ buffer solution and transferred to a chamber on the stage of a Nikon eclipse TE300 microscope. Fura-2-AM-ester was excited at […] to indicate relative [Ca^2+]i changes by the F340/F380 ratio recorded with a dynamic image analysis system (Laboratory Automation 2.0, RCS, Florence, Italy) and the cells were allowed (at least 10 min) to attain a stable fluorescence before beginning the experiment. A calibration curve was set up using buffer containing Fura-2-AM-ester and determinant concentrations of free Ca^2+. This curve was then used to convert the data obtained from the F340/F380 ratio to [Ca^2+]i (nM).
All exemplified compounds were tested at the concentration of 10 μM against the calcium uptake induced by 10 μM PF-4840154. For selected examples, the entire concentration response curves were constructed and the respective IC50 value calculated.

Where [5] appears, read: read-out: % of reversal of mechanical allodynia.
[6] abbreviates: read-out: Maximal inhibition (%).

Structures are written as SMILES. Like-named read-outs stand apart in the source and are kept apart here.

T1 sequence (O75762 whole entry): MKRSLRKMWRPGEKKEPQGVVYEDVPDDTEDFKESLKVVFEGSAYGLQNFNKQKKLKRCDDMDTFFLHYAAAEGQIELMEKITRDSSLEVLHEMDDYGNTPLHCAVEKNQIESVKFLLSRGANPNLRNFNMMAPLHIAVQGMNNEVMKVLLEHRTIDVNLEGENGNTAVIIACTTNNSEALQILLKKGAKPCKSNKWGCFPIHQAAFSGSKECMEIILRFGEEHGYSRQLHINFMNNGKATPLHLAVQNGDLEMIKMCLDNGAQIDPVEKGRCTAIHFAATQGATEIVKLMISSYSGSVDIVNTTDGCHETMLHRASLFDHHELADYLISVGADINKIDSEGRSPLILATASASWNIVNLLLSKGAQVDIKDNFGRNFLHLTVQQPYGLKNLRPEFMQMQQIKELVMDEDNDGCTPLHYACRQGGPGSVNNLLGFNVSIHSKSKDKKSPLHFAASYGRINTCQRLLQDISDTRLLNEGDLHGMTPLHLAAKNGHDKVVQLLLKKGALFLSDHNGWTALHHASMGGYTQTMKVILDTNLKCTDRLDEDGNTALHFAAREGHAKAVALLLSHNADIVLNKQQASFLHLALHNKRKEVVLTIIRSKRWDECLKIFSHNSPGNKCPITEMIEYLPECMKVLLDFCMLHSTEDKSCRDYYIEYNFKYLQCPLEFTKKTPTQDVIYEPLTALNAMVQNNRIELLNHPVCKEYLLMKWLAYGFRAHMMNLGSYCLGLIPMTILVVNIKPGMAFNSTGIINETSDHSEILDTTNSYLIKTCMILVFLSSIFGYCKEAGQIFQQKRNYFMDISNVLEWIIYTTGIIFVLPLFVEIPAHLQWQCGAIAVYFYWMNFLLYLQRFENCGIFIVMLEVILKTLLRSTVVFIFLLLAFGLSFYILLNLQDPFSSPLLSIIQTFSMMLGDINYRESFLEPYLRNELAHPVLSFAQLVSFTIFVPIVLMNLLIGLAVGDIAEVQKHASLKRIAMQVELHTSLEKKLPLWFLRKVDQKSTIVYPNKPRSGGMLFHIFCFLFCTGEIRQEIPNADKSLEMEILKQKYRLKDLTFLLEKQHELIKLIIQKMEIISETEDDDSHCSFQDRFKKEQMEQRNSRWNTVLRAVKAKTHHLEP

Consider `CCN(C1(C(=O)NCc2cccc(-c3ccc(C(F)(F)F)cc3)c2)CC1)S(=O)(=O)c1ccc(Cl)s1` [Example 59, 1-[(5-chloro-2-thienyl)sulfonyl-ethyl-amino]-N-[[3-[4-(trifluoromethyl)phenyl]phenyl]methyl]cyclopropanecarboxamide], for which, in experiment [1], the inhibition (as a rule, the drop in the measured response relative to a control, in per cent) at 10 µM was 99%. In experiment [1], the IC50 – broadly, the concentration at which inhibition is half-maximal – is 38 nM. In addition, the inhibition in vivo at 30 µmol/kg in experiment [2] (setting [5]) was 111%; in experiment [2] (setting [6]), 111%; in experiment [3] (setting [5]), 67%; in experiment [3] (setting [6]) it was 67%.

For the compound `C=C(C(=O)NCc1ccnc(-c2ccc(OC(F)(F)F)cc2)c1)N(CC)S(=O)(=O)c1ccc(Cl)s1` [Example 7, 2-[(5-chloro-2-thienyl)sulfonyl-ethyl-amino]-N-[[2-[4-(trifluoromethoxy)phenyl]-4-pyridyl]methyl]prop-2-enamide], the inhibition at 10 µM in experiment [1] was 100%. The figures for the IC50 in experiment [1] and in experiment [4] were 36 nM and 29 nM, respectively. For the same compound, the inhibition in vivo at 30 µmol/kg in experiment [2] (setting [5]) and in experiment [2] (setting [6]) was 74% throughout.

As for `C=C(C(=O)NCc1cc(-c2ccc(C(F)(F)F)cc2)nc(N(C)C)c1)N(CC)S(=O)(=O)c1ccc(F)cc1` [Example 37, N-[[2-dimethylamino-6-[4-(trifluoromethyl)phenyl]-4-pyridyl]methyl]-2-[ethyl-(4-fluorophenyl)sulfonyl-amino]prop-2-enamide], in experiment [1], testing at 10 µM gave an inhibition of 100%. For the same compound, the IC50 in experiment [1] was determined as 18 nM. Also, the inhibition in vivo at 30 µmol/kg in experiment [2] (setting [5]) was determined as 95%; in experiment [2] (setting [6]) it was 95%; in experiment [3] (setting [5]), 82%; in experiment [3] (setting [6]), 82%.

For the compound `C=C(C(=O)NCc1cc(-c2ccc(C(F)(F)F)cc2)nc(-c2ccc(C(F)(F)F)cc2)c1)N(CC)S(=O)(=O)c1ccc(Cl)cc1` [Example 19, N-[[2,6-bis[4-(trifluoromethyl)phenyl]-4-pyridyl]methyl]-2-[(4-chlorophenyl)sulfonyl-ethyl-amino]prop-2-enamide], the inhibition at 10 µM in experiment [1] was found to be 100%. Also, the IC50 in experiment [1] stood at 74 nM; in experiment [4], 68 nM. Besides, the inhibition in vivo at 30 µmol/kg in experiment [2] (setting [5]) and in experiment [2] (setting [6]) was 74% throughout.

Compound `CCN(C1(C(=O)NCc2cc(-c3ccc(C(F)(F)F)cc3)nc(N3CCCC3)c2)CC1)S(=O)(=O)c1ccc(F)cc1` [Example 51, 1-[ethyl-(4-fluorophenyl)sulfonyl-amino]-N-[[2-pyrrolidin-1-yl-6-[4-(trifluoromethyl)phenyl]-4-pyridyl]methyl]cyclopropanecarboxamide] registered an inhibition at 10 µM in experiment [1] of 100%. For the same compound, half-maximal inhibition in experiment [1] (IC50) was put at 41 nM. Besides, the inhibition in vivo at 30 µmol/kg turned out to be 76% in experiment [2] (setting [5]), 76% in experiment [2] (setting [6]), 65% in experiment [3] (setting [5]) and 65% in experiment [3] (setting [6]).

The compound `C=C(C(=O)NCc1cc(-c2ccc(C(F)(F)F)cc2)nc(N2CCCC2)c1)N(CC)S(=O)(=O)c1ccc(Cl)cc1` [Example 14, 2-[(4-chlorophenyl)sulfonyl-ethyl-amino]-N-[[2-pyrrolidin-1-yl-6-[4-(trifluoromethyl)phenyl]-4-pyridyl]methyl]prop-2-enamide] displayed an inhibition at 10 µM in experiment [1] of 100%. The results for the IC50 in experiment [1] and in experiment [4] were 40 nM and 60 nM, respectively. Moreover, the inhibition in vivo at 30 µmol/kg in experiment [2] (setting [5]) and in experiment [2] (setting [6]) was 75% throughout.

For `C=C(C(=O)NCc1cccc(-c2ccc(OC(F)(F)F)cc2)c1)N(CC)S(=O)(=O)c1ccc(F)cc1` [Example 11, 2-[ethyl-(4-fluorophenyl)sulfonyl-amino]-N-[[3-[4-(trifluoromethoxy)phenyl]phenyl]methyl]prop-2-enamide], the inhibition at 10 µM in experiment [1] came to 99%. Moreover, the IC50 is 17 nM in experiment [1] and 20 nM in experiment [4]. Moreover, the inhibition in vivo at 30 µmol/kg in experiment [2] (setting [5]) and in experiment [2] (setting [6]) was 72% throughout.

In experiment [1], `C=C(C(=O)NCc1cccc(-c2ccc(C(F)(F)F)cc2)c1)N(CC)S(=O)(=O)c1ccc(Cl)cc1` [Example 10, 2-[(4-chlorophenyl)sulfonyl-ethyl-amino]-N-[[3-[4-(trifluoromethyl)phenyl]phenyl]methyl]prop-2-enamide] gave an inhibition at 10 µM of 99%. Moreover, the IC50 was 25 nM in experiment [1] and 47 nM in experiment [4]. Moreover, the inhibition in vivo at 30 µmol/kg in experiment [2] (setting [5]) and in experiment [2] (setting [6]) was 63% each time.

As for `C=C(C(=O)NCc1cc(-c2ccc(C(F)(F)F)cc2)nc(N2CCCC2)c1)N(CC)S(=O)(=O)c1ccc(F)cc1` [Example 38, 2-[ethyl-(4-fluorophenyl)sulfonyl-amino]-N-[[2-pyrrolidin-1-yl-6-[4-(trifluoromethyl)phenyl]-4-pyridyl]methyl]prop-2-enamide], 10 µM produced 100% inhibition in experiment [1]. The IC50 in experiment [1] was 17 nM; in experiment [4], 14 nM. Further, the inhibition in vivo at 30 µmol/kg in experiment [2] (setting [5]) and in experiment [2] (setting [6]) was 87% throughout.

`C=C(C(=O)NCc1cc(-c2ccc(C(F)(F)F)cc2)nc(N2CCCC2)c1)N(CC)S(=O)(=O)c1ccc(Cl)s1` [Example 15, 2-[(5-chloro-2-thienyl)sulfonyl-ethyl-amino]-N-[[2-pyrrolidin-1-yl-6-[4-(trifluoromethyl)phenyl]-4-pyridyl]methyl]prop-2-enamide] registered an inhibition at 10 µM in experiment [1] of 100%. Besides, the half-maximal inhibitory concentration (IC50) in experiment [1] was 22 nM; in experiment [4] it was 32 nM. Besides, the inhibition in vivo at 30 µmol/kg in experiment [2] (setting [5]) and in experiment [2] (setting [6]) was 72% throughout.

As for `CCOc1cc(CNC(=O)C2(N(CC)S(=O)(=O)c3ccc(Cl)s3)CC2)cc(-c2ccc(C(F)(F)F)cc2)n1` [Example 53, 1-[(5-chloro-2-thienyl)sulfonyl-ethyl-amino]-N-[[2-ethoxy-6-[4-(trifluoromethyl)phenyl]-4-pyridyl]methyl] cyclopropanecarboxamide], in experiment [1], testing at 10 µM gave an inhibition of 100%. Moreover, the IC50 in experiment [1] stood at 17 nM. Besides, the inhibition in vivo at 30 µmol/kg in experiment [2] (setting [5]) is 89%; in experiment [2] (setting [6]), 89%; in experiment [3] (setting [5]) it was 83%; in experiment [3] (setting [6]), 83%.
